The test system of data set [1] is Homo sapiens. Nature of the data set: Renal clearance in healthy human assessed as paracetamol sulfate level at 20 mg/kg. The class given is ADME, organism-based, Kidney. To be noted: in vivo.
In data set [2] the test system is Homo sapiens. Nature of the data set: Renal clearance in healthy human assessed as paracetamol glucuronide level at 20 mg/kg. The class given is ADME, organism-based, Kidney. The settings on record: in vivo.
A short description of data set [3]: Half life in healthy young adult human. The class given is ADME, organism-based. The settings on record: in vivo.
The nature of data set [4]: Drug excretion in urine of healthy young adult human assessed as sulphate conjugate level after 24 hrs. The class given is ADME. To be noted: in vivo.
The test system of data set [5] is Homo sapiens. Nature of the data set: Drug recovery in poisoned human patient (9 patients) without liver damage receiving supportive treatment assessed as glucuronide conjugate level at 20 mg/kg, po. To be noted: in vivo. The class given is ADME, organism-based.
Data set [6] deals with Homo sapiens. Put plainly: Drug recovery in poisoned human patient (8 patients) without liver damage receiving methionine treatment assessed as mercapturate plus cysteine conjugate level at 20 mg/kg, po. The class given is ADME, organism-based. To be noted: in vivo.
Data set [7] concerns Homo sapiens. Put plainly: Drug recovery in healthy human subjects (8 subjects) assessed as glucuronide conjugate level at 20 mg/kg, po. The class given is ADME, organism-based. The settings on record: in vivo.
Data set [8] is described as follows: Elimination half life in healthy adult male human subject at 12 mg/kg, po. The class given is ADME, organism-based. The settings on record: in vivo, read-out: beta t1/2 (converted).
Data set [9] relates to Homo sapiens. Put plainly: Drug recovery in poisoned human patient (23 patients) without liver damage receiving NAC treatment assessed as glucuronide conjugate level at 20 mg/kg, po. The class given is ADME, organism-based. The settings on record: in vivo.
Data set [10] is described as follows: Elimination half life in healthy adult male human subject at 12 mg/kg, iv. The class given is ADME, organism-based. To be noted: in vivo, read-out: beta t1/2 (converted).
Data set [11] concerns Homo sapiens. Nature of the data set: Drug recovery in poisoned human patient (15 patients) without liver damage receiving cysteamine treatment assessed as glucuronide conjugate level at 20 mg/kg, po. The class given is ADME, organism-based. The settings on record: in vivo.
In data set [12] the test system is Homo sapiens. Nature of the data set: Drug recovery in poisoned human patient (15 patients) without liver damage receiving cysteamine treatment assessed as sulphate conjugate level at 20 mg/kg, po. The class given is ADME, organism-based. The settings on record: in vivo.
Data set [13] can be described thus: Volume of distribution at central and peripheral compartment in healthy adult male human subject at 12 mg/kg, iv. To be noted: in vivo.
Data set [14] concerns Homo sapiens. Put plainly: Mean drug recovery in poisoned human patient (15 patients) without liver damage receiving cysteamine treatment at 20 mg/kg, po. The class given is ADME, organism-based. To be noted: in vivo.
The nature of data set [15]: Drug excretion in urine of healthy young adult human assessed as glucuronide conjugate level after 24 hrs. The class given is ADME. The settings on record: in vivo.
Data set [16] has as its system Homo sapiens. Put plainly: Distribution half life in healthy adult male human subject at 12 mg/kg, iv. The class given is ADME, organism-based. To be noted: in vivo.
Data set [17] has as its system Homo sapiens. Put plainly: Drug recovery in poisoned human patient (9 patients) without liver damage receiving supportive treatment assessed as sulphate conjugate level at 20 mg/kg, po. The class given is ADME, organism-based. The settings on record: in vivo.
Data set [18] has as its system Homo sapiens. Put plainly: Drug recovery in poisoned human patient (8 patients) with severe liver damage receiving supportive treatment assessed as sulphate conjugate level at 20 mg/kg, po. The class given is ADME, organism-based. The settings on record: in vivo.
The nature of data set [19]: Drug excretion in urine of healthy young adult human assessed as unchanged parent drug level after 24 hrs. The class given is ADME. To be noted: read-out: Drug excretion.
A short description of data set [20]: Half life in elderly human. The class given is ADME, organism-based. To be noted: in vivo.
The nature of data set [21]: Volume of distribution in 70 kg adult human at 12 mg/kg, iv infused over 2 mins. To be noted: in vivo.
Data set [22] can be described thus: Systemic availability in human. The class given is ADME, organism-based. The settings on record: in vivo.
The test system of data set [23] is Homo sapiens. Nature of the data set: Drug recovery in poisoned human patient (23 patients) without liver damage receiving NAC treatment assessed as sulphate conjugate level at 20 mg/kg, po. The class given is ADME, organism-based. To be noted: in vivo.
For data set [24], the system named is Homo sapiens. Nature of the data set: Mean drug recovery in poisoned human patient (8 patients) with severe liver damage receiving NAC treatment at 20 mg/kg, po. To be noted: in vivo. The class given is ADME, organism-based.
Data set [25] has as its system Homo sapiens. Nature of the data set: Drug recovery in poisoned human patient (8 patients) without liver damage receiving methionine treatment assessed as sulphate conjugate level at 20 mg/kg, po. The class given is ADME, organism-based. To be noted: in vivo.
Data set [26] relates to Homo sapiens. Put plainly: Drug recovery in poisoned human patient (8 patients) with severe liver damage receiving NAC treatment assessed as sulphate conjugate level at 20 mg/kg, po. The class given is ADME, organism-based. To be noted: in vivo.
The test system of data set [27] is Homo sapiens. Put plainly: Drug recovery in poisoned human patient (3 patients) with severe liver damage receiving methionine treatment assessed as glucuronide conjugate level at 20 mg/kg, po. The class given is ADME, organism-based. The settings on record: in vivo.
The test system of data set [28] is Homo sapiens. Put plainly: Mean drug recovery in poisoned human patient (3 patients) with severe liver damage receiving methionine treatment at 20 mg/kg, po. The class given is ADME, organism-based. To be noted: in vivo.
For data set [29], the system named is Homo sapiens. Put plainly: Drug recovery in poisoned human patient (8 patients) with severe liver damage receiving NAC treatment assessed as mercapturate plus cysteine conjugate level at 20 mg/kg, po. The class given is ADME, organism-based. The settings on record: in vivo.
In data set [30] the test system is Homo sapiens. Nature of the data set: Mean drug recovery in poisoned human patient (9 patients) without liver damage receiving supportive treatment at 20 mg/kg, po. The class given is ADME, organism-based. To be noted: in vivo.
The subject of data set [31] is Homo sapiens. Nature of the data set: Mean drug recovery in poisoned human patient (23 patients) without liver damage receiving NAC treatment at 20 mg/kg, po. The class given is ADME, organism-based. To be noted: in vivo.
Data set [32] concerns Homo sapiens. Put plainly: Drug recovery in poisoned human patient (8 patients) with severe liver damage receiving supportive treatment assessed as mercapturate plus cysteine conjugate level at 20 mg/kg, po. The class given is ADME, organism-based. The settings on record: in vivo.
The test system of data set [33] is Homo sapiens. Nature of the data set: Drug recovery in poisoned human patient (15 patients) without liver damage receiving cysteamine treatment assessed as mercapturate plus cysteine conjugate level at 20 mg/kg, po. The class given is ADME, organism-based. The settings on record: in vivo.
The subject of data set [34] is Homo sapiens. Put plainly: Drug recovery in poisoned human patient (9 patients) without liver damage receiving supportive treatment assessed as mercapturate plus cysteine conjugate level at 20 mg/kg, po. The class given is ADME, organism-based. To be noted: in vivo.
Data set [35] deals with Homo sapiens. Put plainly: Drug recovery in healthy human subjects (8 subjects) assessed as sulphate conjugate level at 20 mg/kg, po. To be noted: in vivo. The class given is ADME, organism-based.
The nature of data set [36]: Drug excretion in urine of human at 20 mg/kg assessed as mercapturic conjugate level after 24 hrs. The settings on record: in vivo. The class given is ADME, organism-based.
For data set [37], the system named is Homo sapiens. Put plainly: Drug recovery in poisoned human patient (8 patients) with severe liver damage receiving supportive treatment assessed as glucuronide conjugate level at 20 mg/kg, po. To be noted: in vivo. The class given is ADME, organism-based.
Data set [38] has as its system Homo sapiens. Put plainly: Drug recovery in poisoned human patient (23 patients) without liver damage receiving NAC treatment assessed as mercapturate plus cysteine conjugate level at 20 mg/kg, po. The class given is ADME, organism-based. The settings on record: in vivo.
For data set [39], the system named is Homo sapiens. Put plainly: Drug recovery in healthy human subjects (8 subjects) assessed as mercapturate plus cysteine conjugate level at 20 mg/kg, po. The class given is ADME, organism-based. To be noted: in vivo.
For data set [40], the system named is Homo sapiens. Put plainly: Mean drug recovery in poisoned human patient (8 patients) with severe liver damage receiving supportive treatment at 20 mg/kg, po. The class given is ADME, organism-based. To be noted: in vivo.
Data set [41] deals with Homo sapiens. Nature of the data set: Drug recovery in poisoned human patient (8 patients) without liver damage receiving methionine treatment assessed as glucuronide conjugate level at 20 mg/kg, po. The class given is ADME, organism-based. The settings on record: in vivo.
Data set [42] deals with Homo sapiens. Nature of the data set: Drug recovery in poisoned human patient (3 patients) with severe liver damage receiving methionine treatment assessed as sulphate conjugate level at 20 mg/kg, po. The class given is ADME, organism-based. To be noted: in vivo.
Data set [43] is described as follows: Drug excretion in human urine assessed as unchanged parent compound level. The class given is ADME. To be noted: read-out: Drug excretion.
The nature of data set [44]: Volume of distribution at central compartment in healthy adult male human subject at 12 mg/kg, iv. To be noted: in vivo.
A short description of data set [45]: Systemic availability in healthy adult male human subject at 12 mg/kg, po. The class given is ADME, organism-based. To be noted: in vivo.
Data set [46] relates to Homo sapiens. Put plainly: Mean drug recovery in poisoned human patient (8 patients) without liver damage receiving methionine treatment at 20 mg/kg, po. The class given is ADME, organism-based. The settings on record: in vivo.
For data set [47], the system named is Homo sapiens. Nature of the data set: Drug recovery in poisoned human patient (8 patients) with severe liver damage receiving NAC treatment assessed as glucuronide conjugate level at 20 mg/kg, po. The class given is ADME, organism-based. To be noted: in vivo.
Data set [48] deals with Homo sapiens. Nature of the data set: Drug recovery in poisoned human patient (3 patients) with severe liver damage receiving methionine treatment assessed as mercapturate plus cysteine conjugate level at 20 mg/kg, po. The class given is ADME, organism-based. The settings on record: in vivo.
Data set [49] in a line: Apparent volume of distribution in human. The settings on record: in vivo.
The nature of data set [50]: Half life in human. The class given is ADME, organism-based. To be noted: in vivo.

Regarding `CC(=O)Nc1ccc(OS(=O)(=O)O)cc1`, the CL in the data set on Homo sapiens [1] was determined as 166 mL/min.

For `CC(=O)Nc1ccc(O[C@@H]2O[C@H](C(=O)O)[C@@H](O)[C@H](O)[C@H]2O)cc1` [ACETAMINOPHEN GLUCURONIDE], in the data set with Homo sapiens [2], the CL was determined as 130 mL/min.

For orientation: bioavailability means dose-corrected exposure relative to a reference, in per cent. Consider `CC(=O)Nc1ccc(O)cc1` [ACETAMINOPHEN], for which the half-life is 2 h in data set [3], 1.97 h in [8], 1.98 h in [10] and 2.17 h in [20]. For the same compound, the values for the Drug excretion in data set [4], in data set [15] and in data set [36] were 30%, 55% and 4%, respectively. The Drug recovery in the data set with Homo sapiens [5] is listed as 75.3%; with Homo sapiens [6], 8.1%; with Homo sapiens [7] it was 54.7%; in the data set with Homo sapiens [9] it was 63.6%; in the data set on Homo sapiens [11], 72.4%; with Homo sapiens [12] it was 11.9%. Besides, the Drug recovery worked out at 14.5 g in the data set with Homo sapiens [14]; 9.3% in the data set with Homo sapiens [17]; 9.7% in the data set on Homo sapiens [18]; 14.5% in the data set with Homo sapiens [23]; 13 g in the data set on Homo sapiens [24]; 10.1% with Homo sapiens [25]. Moreover, the Drug recovery with Homo sapiens [26] is given as 13.3%; in the data set with Homo sapiens [27], 68.9%; in the data set on Homo sapiens [28], 13.7 g; in the data set on Homo sapiens [29], 16.5%; in the data set on Homo sapiens [30], 10.3 g; with Homo sapiens [31], 13.4 g. Further, the Drug recovery in the data set with Homo sapiens [32] was found to be 15.2%; with Homo sapiens [33], 6.4%; in the data set on Homo sapiens [34], 6.9%; with Homo sapiens [35] it was 32.3%; in the data set on Homo sapiens [37], 66.5%; in the data set with Homo sapiens [38] it was 10.6%. The Drug recovery in the data set with Homo sapiens [39] is given as 8%; with Homo sapiens [40] it was 11.8 g; in the data set with Homo sapiens [41], 73.9%; in the data set with Homo sapiens [42], 9.1%; with Homo sapiens [46], 14.5 g; with Homo sapiens [47] it was 60.9%. The Drug recovery in the data set on Homo sapiens [48] is listed as 13.8%. The Vd came out at 0.897 L/kg in data set [13], 0.509 L/kg in data set [44] and 0.9 L/kg in data set [49]. In the data set on Homo sapiens [16], this compound showed an alphat1/2 of 0.13 h. For the same compound, in data set [19], the dose excreted at 24 h was found to be 4%. For the same compound, in data set [21], the Vd at 2 min came to 65 L. The bioavailability in [22] stood at 75%; in [45] it was 76%. Moreover, the dose excreted in [43] amounted to 2%.

For `CCOc1ccc(NC(C)=O)cc1` [PHENACETIN], the half-life in data set [50] is 1 h. The dose excreted in data set [43] is less than 0.5%.

Source of the values: ChEMBL document CHEMBL3784961, “Kinetics and metabolism of paracetamol and phenacetin” (Br J Clin Pharmacol, 1980).
